Consider two compounds from US5532259A, “Isoxazole-4-carboxamides and hydroxyalkylidenecyanoacetamides, pharmaceuticals containing these compounds and their use” (Hoechst Aktiengesellschaft, priority 1990, dated 1996).

Series [1] concerns CTLL mouse T cell line (Tc clone IL-2). The series is described as follows: Cell proliferation test, CTLL. As to conditions: 72 h, read-out: ED50 (concentration at which a 50% inhibition occurs). The format is cell-based. The method, then: (§1) The cell culture in vitro proliferation test was used as an activity test for chemotherapeutics.
(§2) Clicks/RPMI 1640 medium (50:50) containing L-glutamine without any NaHCO3, in the form of powder for 10 1 (Seromed, Biochrom, Berlin, FRG) is dissolved in 9 l of double-distilled water, and sterile filtered into 900 ml bottles.
(§3) 900 ml of base medium are buffered using 9.5 ml of 7.5% strength sodium hydrogencarbonate solution and 5 ml of HEPES (N-2-hydroxyethyl-piperazine-N-2 ethanesulfonic acid) (Gibco, Eggenstein, FRG).
(§4) 900 ml of base medium plus 19 ml of NaHCO3 solution (7.5%; 10 ml of HEPES solution and 10 ml of L-glutamine solution (200 mM)).
(§5) For keeping the tumor cells and hybridoma cells, working medium containing 5% FCS is prepared. […]
(§6) The proliferation test was carried out in round bottom microtiter plates. […] In all tests, the values were determined four times. […] The value of the negative control was subtracted from all values determined and the difference of positive control minus negative control was set at 100%.
(§7) The plates were incubated at 37° C./5% CO2 for 72 h and the proliferation rate was determined correspondingly as with the mitogen-induced lymphocyte proliferation. […]

In series [2] the test system is HT-2 mouse T cell line (IL-2). The series is described as follows: Cell proliferation test, HT-2. As to conditions: 72 h, read-out: ED50 (concentration at which a 50% inhibition occurs). The format is cell-based. The method, then:
as §1, §2, §3, §4, §5, §6, §7

The subject of series [3] is CTL-J-K mouse T cell line (Tc, IL-2). The series is described as follows: Cell proliferation test, CTL-J-K. The series is classed as cell-based. As to conditions: 72 h, read-out: ED50 (concentration at which a 50% inhibition occurs). The method, then: as §1, §2, §3, §4, §5, §6, §7
In series [4] the test system is Cl 9/4 mouse T cell line (IL-4 dep.). The series is described as follows: Cell proliferation test, Cl 9/4. The series is classed as cell-based. As to conditions: 72 h, read-out: ED50 (concentration at which a 50% inhibition occurs). The method, then:
as §1, §2, §3, §4, §5, §6, §7

For series [5], the system named is K III 5 mouse T cell line (Th, IL-2). Description: Cell proliferation test, K III 5. The series is classed as cell-based. As to conditions: 72 h, read-out: ED50 (concentration at which a 50% inhibition occurs). The method, then: as §1, §2, §3, §4, §5, §6, §7
The next series deals with Spleen T (con A and PWM). The series is described as follows: Mitogen-induced lymphocyte proliferation, Spleen T. The format is cell-based. As to conditions: Mus musculus, T-cell, 64 h, 48 h + 16 h with tritium thymidine, read-out: ED50 (concentration at which a 50% inhibition occurs). The method, then: as §1, §2, §3, §4
(§8) Medium for mitogen-induced lymphocyte proliferation. Working medium containing 1% heat-inactivated (30 min, 56° C.) fetal calf serum (FCS) is prepared.
(§9) The mice are sacrificed by cervical dislocation and the spleens are removed under sterile conditions. The spleens are shredded on a sterile sieve having a mesh width of 80 "mesh" and are carefully transferred to a Petri dish containing working medium using the plunger of a plastic syringe (10 ml). […]
(§10) The group with mitogen additions and without preparation were defined as positive controls. […] The amount of radioactivity incorporated by these cells is measured in a beta counter (Packard, Tricarb 460c).

A further series deals with Spleen B (LPS). The series is described as follows: Mitogen-induced lymphocyte proliferation, Spleen B. The format is cell-based. As to conditions: Mus musculus, B-cell, 64 h, 48 h + 16 h with tritium thymidine, read-out: ED50 (concentration at which a 50% inhibition occurs). The method, then: as §1, §2, §3, §4, §8, §9, §10
For series [6], the system named is A20 2J mouse B cell tumor (BALB/c). The series is described as follows: Cell proliferation test, A20 2J. The series is classed as cell-based. As to conditions: 72 h, read-out: ED50 (concentration at which a 50% inhibition occurs). The method, then:
as §1, §2, §3, §4, §5, §6, §7

For series [7], the system named is TRK 4 mouse B cell hybridoma. Description: Cell proliferation test, TRK 4. The series is classed as cell-based. As to conditions: 72 h, read-out: ED50 (concentration at which a 50% inhibition occurs). The method, then:
as §1, §2, §3, §4, §5, §6, §7

The test system of series [8] is TRK 5 mouse B cell hybridoma. The series is described as follows: Cell proliferation test, TRK 5. The format is cell-based. As to conditions: 72 h, read-out: ED50 (concentration at which a 50% inhibition occurs). The method, then:
as §1, §2, §3, §4, §5, §6, §7

The subject of series [9] is Bone marrow mouse (M-CSF, GM CSF). Description: Cell proliferation test, bone marrow. The format is cell-based. As to conditions: 72 h, read-out: ED50 (concentration at which a 50% inhibition occurs). The method, then:
as §1, §2, §3, §4, §5, §6, §7

Series [10] deals with WEHI 279 mouse B cell lymphoma. The series is described as follows: Cell proliferation test, WEHI 279. The series is classed as cell-based. As to conditions: 72 h, read-out: ED50 (concentration at which a 50% inhibition occurs). The method, then: as §1, §2, §3, §4, §5, §6, §7
A further series deals with P 388 D1 mouse Mo tumor. The series is described as follows: Cell proliferation test, P 388 D1. The format is cell-based. As to conditions: P388D1, 72 h, read-out: ED50 (concentration at which a 50% inhibition occurs). The method, then: as §1, §2, §3, §4, §5, §6, §7
The subject of series [11] is 7TD1 mouse B cell hybridoma (IL-6). Description: Cell proliferation test, 7TD1. The series is classed as cell-based. As to conditions: 72 h, read-out: ED50 (concentration at which a 50% inhibition occurs). The method, then: as §1, §2, §3, §4, §5, §6, §7
For series [12], the system named is PB-3C mouse mast cell line (IL-3). The series is described as follows: Cell proliferation test, PB-3C. The series is classed as cell-based. As to conditions: 72 h, read-out: ED50 (concentration at which a 50% inhibition occurs). The method, then:
as §1, §2, §3, §4, §5, §6, §7

A further series deals with DA-1 mouse tumor (IL-3). Description: Cell proliferation test, DA-1. The format is cell-based. As to conditions: 72 h, read-out: ED50 (concentration at which a 50% inhibition occurs). The method, then:
as §1, §2, §3, §4, §5, §6, §7

Another series has as its system 7D4 rat hybridoma. Description: Cell proliferation test, 7D4. The format is cell-based. As to conditions: 72 h, read-out: ED50 (concentration at which a 50% inhibition occurs). The method, then:
as §1, §2, §3, §4, §5, §6, §7

The test system of series [13] is A431 human epidermoid carcinoma. The series is described as follows: Cell proliferation test, A431. As to conditions: A-431, 72 h, read-out: ED50 (concentration at which a 50% inhibition occurs). The format is cell-based. The method, then: as §1, §2, §3, §4, §5, §6, §7
Series [14] deals with KB human epidermoid carcinoma. Description: Cell proliferation test, KB. The format is cell-based. As to conditions: 72 h, read-out: ED50 (concentration at which a 50% inhibition occurs). The method, then: as §1, §2, §3, §4, §5, §6, §7
Series [15] concerns HFF human foreskin fibroblast. The series is described as follows: Cell proliferation test, HFF. The format is cell-based. As to conditions: 72 h, read-out: ED50 (concentration at which a 50% inhibition occurs). The method, then:
as §1, §2, §3, §4, §5, §6, §7

For series [16], the system named is HL-60 human promyelomonocytic leukemia. The series is described as follows: Cell proliferation test, HL-60. The format is cell-based. As to conditions: 72 h, read-out: ED50 (concentration at which a 50% inhibition occurs). The method, then:
as §1, §2, §3, §4, §5, §6, §7

Series [17] in a line: Acute toxicity on oral administration, mouse. As to conditions: in vivo, NMRI mouse, 3 weeks, Litchfield and Wilcoxon. The method, then: (§11) Acute toxicity on oral administration
(§12) Compound 1 was administered orally to the mice or rats to determine the acute toxicity.
(§13) The LD50 values were determined according to Litchfield and Wilcoxon.
(§14) The weight of the NMRI mice (NMRI : Naval Medical Research Institute) is 20 to 25 g and that of the SD rats (SD: Sprague-Dawley) is 120 to 165 g. The mice were fasted for about 18 hours before the test. They are fed normally again 5 hours after administration of the substances tested. After 3 weeks, the animals were sacrificed by means of chloroform and dissected. 6 animals are used per dose.

A short description of series [18]: Acute toxicity on oral administration, rat. As to conditions: in vivo, SD rat, 3 weeks, Litchfield and Wilcoxon. The method, then: as §11, §12, §13, §14
The nature of series [19]: Acute toxicity after intraperitoneal administration, mouse. As to conditions: in vivo, ip, NMRI mouse, 3 weeks, Litchfield and Wilcoxon. The method, then:
Acute toxicity after intraperitoneal administration
The acute toxicity after intraperitoneal administration of the test substances was carried out using NMRI mice (20 to 25 g) and SD rats (120 to 195 g). The test substance was suspended in a 1% strength sodium carboxymethyl cellulose solution. The various doses of the test substance were administered to the mice in a volume of 10 ml/kg of body weight and to the rats in a volume of 5 ml/kg of body weight. 10 animals were used per dose. After 3 weeks, the acute toxicity was determined according to the method of Litchfield and Wilcoxon.

As a reminder, the LD50 is the dose expected to kill half of the subjects tested.

Regarding `Cc1oncc1C(=O)Nc1ccc(C(F)(F)F)cc1` [Compound 1, 5-methylisoxazole-4-carboxylic acid (4-trifluoromethyl)anilide], the IC50 was 40 to 50 µM in series [1]; 40 to 50 µM in series [2]; 40 to 50 µM in [3]; 25 µM in [4]; 1 to 3 µM in [5]; 10 µM in the series with Spleen T (con A and PWM). For the same compound, the IC50 in the series with Spleen B (LPS) was 10 µM; in series [6], 1 to 3 µM; in series [7], 5 µM; in series [8], 5 µM; in series [9], 5 µM; in series [10] it was no more than 1 µM. The IC50 in the series with P 388 D1 mouse Mo tumor was 10 µM; in series [11], 10 µM; in [12], 20 µM; in the series on DA-1 mouse tumor (IL-3), 5 µM; with 7D4 rat hybridoma, no more than 1 µM; in series [13] it was 15 µM. Besides, the IC50 stood at 15 µM in series [14], 40 µM in series [15] and 25 µM in series [16]. In addition, the LD50 at 504 h was 445 mg/kg in series [17] and 235 mg/kg in [18].
Regarding `C/C(O)=C(\C#N)C(=O)Nc1ccc(C(F)(F)F)cc1` [Compound 2, N-(4-trifluoromethylphenyl)-2-cyano-3-hydroxycrotonamide], the LD50 at 504 h in series [18] is 160 mg/kg; in series [19] it was 100 to 200 mg/kg.
